The source of these data is PubChem BioAssay (NCI).

Common to all, as to assay: NCI anticancer screen, dose series, 48 h
Test [1] has as its system SR leukemia.
For test [2], the system named is OVCAR-4 ovarian.
The test system of test [3] is HOP-92 NSCLC.
The subject of test [4] is HOP-62 NSCLC.
Test [5] has as its system HCT-15 colon.
In test [6] the test system is NCI-H226 lung.
Test [7] relates to HCC-2998 colon.
For test [8], the system named is COLO 205 colon.
Test [9] has as its system SF-268 CNS.
Test [10] relates to LOX IMVI melanoma.
Test [11] relates to SF-295 CNS.
Test [12] relates to A498 renal.
Test [13] deals with OVCAR-3 ovarian.
For test [14], the system named is SK-OV-3 ovarian.
Test [15] relates to KM12 colon.
Test [16] relates to SK-MEL-5 melanoma.
In test [17] the test system is HS 578T breast.
Test [18] deals with PC-3 prostate.
In test [19] the test system is MCF7 breast.

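48-hour exposure; five concentrations; linearly interpolated endpoints. At the TGI there is no net growth.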

On to `CC(=O)C1=C(C)Cn2c(=O)c3ccccc3c(=O)n2C1`, for which the TGI in [1], in test [2], in test [3], in test [4], in test [5] and in test [6] was above 100 µM each time. In addition, the TGI in test [7], in [8], in test [9], in [10], in test [11] and in test [12] was above 100 µM each time. The TGI in test [13], in test [14], in test [15] and in [16] was above 100 µM each time.

Regarding `CCOC(=O)C(C)(C(=O)OCC)/C(Cl)=C\Cl`, the TGI in test [1], in [17], in [2], in test [18], in test [3] and in test [4] was above 100 µM throughout. Moreover, the TGI in test [6] was above 100 µM; in test [7] it was 0.988 µM; in [19] it was above 100 µM; in test [8], above 100 µM; in test [9], above 100 µM; in [10] it was above 100 µM. Also, the TGI in test [11], in test [13], in [14], in test [15] and in test [16] was above 100 µM throughout.

On to `C=CCC(CC=O)(C(=O)OCC)C(=O)OCC`, for which the TGI in test [1], in [17], in test [2], in [18], in [3] and in test [4] was above 100 µM each time. For the same compound, the TGI in [5], in test [6], in [19], in test [8], in test [9] and in [10] was above 100 µM in each case. The TGI in test [11], in test [12], in [13], in [14], in test [15] and in test [16] was above 100 µM in each case.

For the compound `O=C1/C(=C/c2ccc(Cl)cc2)N=C(c2ccccc2)N1c1nc2ccccc2s1`, the TGI in test [1] is above 100 µM; in [17], 75.7 µM; in test [2], above 100 µM; in [18], above 100 µM; in test [3] it was above 100 µM; in [4], above 100 µM. For the same compound, the TGI in test [5], in test [6], in [7], in test [19], in test [9] and in test [10] was above 100 µM in each case. Further, the TGI was above 100 µM in test [11]; 97.1 µM in [12]; above 100 µM in test [13]; above 100 µM in [14]; above 100 µM in test [15]; above 100 µM in test [16].

Consider `N#C/C(=C\c1ccc(O)c(O)c1)C(=O)NC1CCC(CC2CCC(NC(=O)/C(C#N)=C/c3ccc(O)c(O)c3)CC2)CC1` (configuration not stated), for which the TGI in [1] is 3.36 µM; in test [2] it was 40.6 µM; in test [3] it was 6.31 µM; in [4], 4.06 µM; in [5], 32.7 µM; in [6] it was 14.3 µM. Moreover, the TGI in test [7] was 7.43 µM; in test [8], 2.51 µM; in test [9], 5.46 µM; in test [10], 1.22 µM; in test [11], 3.55 µM; in [12], above 100 µM. In addition, the TGI was 3.96 µM in [13], above 41.4 µM in [14], 2.92 µM in test [15] and 12.8 µM in test [16].

`COCc1cc2c(cc1/C(=C/[N+](=O)[O-])CS(=O)(=O)c1ccccc1)OCO2`: the TGI in test [1], in [17], in test [3], in test [4], in [5] and in test [6] was above 100 µM each time. For the same compound, the TGI in test [7], in test [19], in test [8], in [9], in test [10] and in [11] was above 100 µM each time. The TGI in [12], in test [13], in test [14] and in test [16] was above 100 µM in each case.

Consider `CCN(CC)CCCNc1nc(=O)[nH]c(C)c1C(=O)Nc1c2ccccc2nc2ccccc12`, for which the TGI in test [2] is 86.3 µM; in test [18] it was above 100 µM; in test [3] it was 13.3 µM; in test [4] it was above 100 µM; in [5], 72.8 µM; in test [6], 93.8 µM. In addition, the TGI was 80.6 µM in test [7]; above 100 µM in test [19]; 23.5 µM in test [8]; 45.4 µM in test [10]; 27.3 µM in test [11]; 31.8 µM in test [12]. The TGI turned out to be 51.6 µM in [13], 59 µM in test [14], 26.5 µM in test [15] and 29 µM in test [16].

For `CCCCCC[C@H]1CC(=O)C2CCCC[C@@]23CC[C@H](CCl)N13` (some centres not stated) (tested in a mixture with another compound), the TGI in [17] was 60.4 µM; in [2], above 100 µM; in test [18] it was 90.6 µM; in test [3], 79.6 µM; in test [4], above 100 µM; in test [5], above 100 µM. Further, the TGI in [7] was above 100 µM; in test [19], 96.9 µM; in [9] it was above 100 µM; in [11] it was above 100 µM; in [12], above 100 µM; in test [13], above 100 µM. Further, the TGI in [14] was above 100 µM; in test [15], above 100 µM; in test [16], 50.7 µM.
